What was measured:
[1] = tested on: zymosan-induced murine peritonitis; assay: Zymosan-induced peritonitis in mice; assay type: in vivo, mouse; conditions: 10 mg/kg i.p.; 30 min post zymosan; ELISA
Method: Mice were killed by inhalation of CO2 after another 30 min for determination of LTC4 levels and vascular permeability and after 4 h for the analysis of LTB4 levels, lipidomic profiles and immune cell infiltration. Cell infiltration and lipid mediator profiles during resolution were studied after 18 h. Peritoneal exudates were collected and cells counted after vital trypan blue staining. LTC4, LTB4, and PGE2 were analyzed in the exudate by enzyme immunoassays (Enzo Life Sciences, Lörrach, Germany) according to manufacturer's instructions. To assess vascular permeability, Evans blue dye (40 mg/kg in saline, 0.3 ml; Sigma-Aldrich) was injected into the tail vain immediately before the induction of peritonitis. Exudates were centrifuged (3000 × g, 5 min) and the absorbance of the supernatants was measured at 610 nm using a Beckman Coulter DU730 spectrophotometer. To investigate the effect of α-T (1a) on the accumulation of α-T-13'-COOH (4a) in infiltrated leukocytes after peritonitis has been established, vehicle or α-[…].) were given 1 h before and/or 4 h post zymosan injection, and mice were killed after another 1.5 h. Leukocytes were obtained from peritoneal exudates by centrifugation (1200 × g, 10 min, 4 °C).

[2] = tested on: peripheral blood mononuclear cells; assay: Cell viability of PBMC (MTT assay); assay type: cell-based, human; conditions: at 1 and 10 µM (one entry for both); 24 h; n.i. no inhibition
Method: The formazan product was solubilized with SDS (10% in 20 mM HCl), and absorbance was measured at 570 nm using a Multiskan Spectrum microplate reader (Thermo Fisher Scientific).

[3] = tested on: 15-LO; assay: 15-LO product formation in A23187/AA-activated PMNL; assay type: cell-based, human; conditions: at 3 µM; mean ± s.e.m., n = 3; n.i. no inhibition
Method: (§1) Cells were washed and medium was exchanged. Freshly isolated PMNL (1 × 10^7) and stably transfected HEK-293 (1 × 10^6) cells were suspended in PBS pH 7.4 containing 1 mg/ml glucose and 1 mM CaCl2. […] A23187- and A23187/AA-treated PMNL and A23187/AA-treated HEK-293 (5-LO_wt), HEK-293 (5-LO_3W) and HEK-293 (5-LO_Arg101Asp) cells produced 135 ± 21, 636 ± 112, 300 ± 59, 133 ± 29, 55 ± 9 ng 5-LO products, respectively. PMNL synthesized 29 ± 6 ng 12-HETE and 97 ± 23 ng 15-HETE when challenged with A23187/AA. 5-LO products from monocytes were analyzed by UPLC-MS/MS.

[4] = target: T1, 5-LO (Homo sapiens, UniProt P09917); assay: Activity of purified human recombinant 5-LO (cell-free); assay type: biochemical; design: made in house; host or cells: E. coli Bl21 (DE3); conditions: cell-free; mean ± s.e.m., n = 3; read-out: IC50, human recombinant 5-LO
T1 sequence (P09917 1-674): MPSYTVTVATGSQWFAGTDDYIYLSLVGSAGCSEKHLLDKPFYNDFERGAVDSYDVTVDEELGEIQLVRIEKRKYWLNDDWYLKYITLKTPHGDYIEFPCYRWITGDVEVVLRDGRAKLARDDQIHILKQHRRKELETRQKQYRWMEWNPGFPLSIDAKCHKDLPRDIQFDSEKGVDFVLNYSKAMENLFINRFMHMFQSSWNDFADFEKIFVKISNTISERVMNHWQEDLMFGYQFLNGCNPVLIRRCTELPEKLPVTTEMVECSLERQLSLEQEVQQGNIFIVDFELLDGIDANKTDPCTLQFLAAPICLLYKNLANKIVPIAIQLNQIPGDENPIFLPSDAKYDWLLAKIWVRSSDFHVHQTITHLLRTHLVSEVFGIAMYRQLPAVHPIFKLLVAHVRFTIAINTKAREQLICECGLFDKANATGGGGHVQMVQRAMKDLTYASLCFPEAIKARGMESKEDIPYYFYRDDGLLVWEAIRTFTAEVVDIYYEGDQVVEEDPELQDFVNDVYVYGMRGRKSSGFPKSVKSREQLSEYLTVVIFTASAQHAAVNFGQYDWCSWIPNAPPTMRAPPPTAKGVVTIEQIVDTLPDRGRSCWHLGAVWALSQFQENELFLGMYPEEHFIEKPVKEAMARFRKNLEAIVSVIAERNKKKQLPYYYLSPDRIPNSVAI
Method: E. coli Bl21 (DE3) cells were transformed with pT3–5LO plasmid to express human recombinant 5-LO, which was purified by affinity chromatography on an ATP-agarose column. In brief, E. coli was lysed in 50 mM triethanolamine/HCl pH 8.0 plus EDTA (5 mM), soybean trypsin inhibitor (60 µg/ml), phenylmethanesulphonyl fluoride (1 mM), dithiothreitol (1 mM), and lysozyme (1 mg/ml). After sonication (3 × 15 s), the homogenate was centrifuged at 10,000 × g for 15 min and the supernatant again at 40,000 × g for 70 min at 4 °C. The supernatant was applied to an ATP-agarose column (Sigma-Aldrich), and the column was washed with (i) PBS pH 7.4, 1 mM EDTA, (ii) 50 mM phosphate buffer pH 7.4, 0.5 M NaCl, 1 mM EDTA, and (iii) 50 mM phosphate buffer pH 7.4, 1 mM EDTA. 5-LO was eluted with 50 mM phosphate buffer pH 7.4, 1 mM EDTA, 20 mM ATP.
Purified 5-LO (0.5 µg) in PBS pH 7.4 containing EDTA (1 mM) and ATP (1 mM) was pre-incubated with LCMs for 10 min at 4 °C, pre-warmed for 30 s at 37 °C and 5-LO product formation was started by addition of AA (Sigma-Aldrich; 20 µM if not indicated otherwise) plus CaCl2 (2 mM). […] AA was added after incubation for 5 min on ice.

[5] = cited from earlier work; for plasma levels in humans: ref Mangialasche et al., 2012
[6] = target: T1, 5-LO; assay: 5-LO product formation in activated PMNL; assay type: cell-based; design: Freshly isolated PMNL (1 × 10^7); endogenous in cells; host or cells: human PMNL freshly isolated from leukocyte concentrates; conditions: cell-based; mean ± s.e.m., n = 3; read-out: IC50, activated PMNL (5-LO)
Text: Human PMNL, monocytes, PBMC, and platelets were freshly isolated from leukocyte concentrates. The protocols for experiments with human blood and blood cells were approved by the ethical commission of the Friedrich-Schiller-University Jena. […] PMNL were recovered from the pellet after hypotonic lysis of erythrocytes. Platelets were obtained from the supernatant and washed with PBS pH 5.9/0.9% NaCl (1:1). […]

[7] = target: T2, 12-LO (Homo sapiens, UniProt P18054); assay: 12-LO product formation in A23187/AA-activated PMNL; assay type: cell-based; conditions: at 3 µM; mean ± s.e.m., n = 3; n.i. no inhibition
T2 construct: 12-HETE (12-LO product from platelets in PMNL preparations); endogenous in cells; host or cells: platelets contaminating human PMNL preparations
T2 sequence (P18054 1-663): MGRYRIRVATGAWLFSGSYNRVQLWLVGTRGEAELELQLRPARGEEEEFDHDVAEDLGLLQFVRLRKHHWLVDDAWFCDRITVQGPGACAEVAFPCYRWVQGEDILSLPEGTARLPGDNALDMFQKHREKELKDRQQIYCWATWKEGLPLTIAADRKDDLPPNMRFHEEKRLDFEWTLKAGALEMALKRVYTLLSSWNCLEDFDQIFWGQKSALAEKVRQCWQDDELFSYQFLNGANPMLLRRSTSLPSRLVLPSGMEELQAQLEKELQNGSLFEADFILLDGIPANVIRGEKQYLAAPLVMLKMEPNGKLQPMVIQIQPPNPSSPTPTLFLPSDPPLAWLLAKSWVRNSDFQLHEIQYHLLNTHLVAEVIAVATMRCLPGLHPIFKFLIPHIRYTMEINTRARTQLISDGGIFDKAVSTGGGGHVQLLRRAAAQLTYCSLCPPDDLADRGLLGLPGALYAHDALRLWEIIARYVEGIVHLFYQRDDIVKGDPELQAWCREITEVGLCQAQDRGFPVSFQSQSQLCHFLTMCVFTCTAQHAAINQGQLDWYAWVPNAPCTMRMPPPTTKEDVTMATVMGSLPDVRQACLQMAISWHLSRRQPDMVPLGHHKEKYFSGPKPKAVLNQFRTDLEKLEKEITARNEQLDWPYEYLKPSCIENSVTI
Method: as §1

[8] = DPPH radical scavenging
Method: Compounds were incubated with 2,2-diphenyl-1-picrylhydrazyl (DPPH, Sigma-Aldrich; […]) in ethanol for 30 min. Absorbance was measured at 520 nm using a Multiskan Spectrum Microplate Reader (Thermo Fisher Scientific)[35]. Ascorbic acid (Sigma-Aldrich; 50 µM), used as control, scavenged DPPH radicals by 82.4 ± 1.9%.

[9] = tested on: intracellular Ca^2+; assay: Intracellular Ca2+ in fMLP-stimulated PMNL; assay type: cell-based, human
Method: PMNL (1 × 10^6) were incubated with Fura-2/AM (Thermo Fisher Scientific; 2 nmol) for 45 min at 37 °C, washed, resuspended in PBS pH 7.4 plus 1 mg/ml glucose and transferred to fluorescene 96-well microplates (Greiner). After pre-incubation with compounds for 10 min, 1 mM Ca^2+ was added, and cells were stimulated with fMLP (1 µM) for another 10 min. Intracellular Ca^2+ concentrations were determined using a thermally (37 °C) controlled NOVOstar fluorescence microplate reader [BMG Labtech, Ortenberg, Germany; emission at 510 nm, excitation at 340 nm (Ca^2+-bound Fura-2) and 380 nm (free Fura-2)][17]. The maximal fluorescence signal was recorded after lysis of […] with Triton X-100, and the minimal fluorescence was assessed by adding 20 mM EDTA to chelate Ca^2+. The difference in the signal ratio obtained with Triton X-100 and Triton X-100 plus 20 mM EDTA was set to 100% for each experiment.

[10] = Water solubility (statement); assay type: physicochemical; conditions: authors' statement in reply to reviewer
[11] = target: T3, human recombinant LTC4 synthase (LTC4S) (Homo sapiens, UniProt Q16873); assay: LTC4 synthase activity; assay type: biochemical; conditions: 10 µM; reference inhibitor
T3 construct: expressed in transfected cells; host or cells: HEK-293 cells stably expressing LTC4S (microsomal membranes)
T3 sequence (Q16873 1-150): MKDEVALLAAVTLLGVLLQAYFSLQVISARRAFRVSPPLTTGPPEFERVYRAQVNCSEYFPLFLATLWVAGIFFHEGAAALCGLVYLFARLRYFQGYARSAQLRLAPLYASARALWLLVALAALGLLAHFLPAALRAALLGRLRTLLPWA
Method: To investigate the effect of LCMs on LTC4S activity, we used microsomal membranes from HEK-293 cells stably expressing LTC4S[70]. […] The conversion of LTA4 to LTC4 methyl esters was initiated by addition of LTA4 methyl ester (Cayman Chemicals; 1 µM). After 10 min at 4 °C, the reaction was terminated by ice-cold methanol (one volume), and LTC-d5 methyl ester (5 ng; Cayman Chemicals) was added as internal standard. LTC4 was extracted and analyzed by UPLC-MS/MS as described for lipid mediators. Vehicle (DMSO)-treated microsomal membranes produced 7.1 ± 0.5 nmol LTC4.

Row | IC50 [4] | IC50 [6] | 12-LO product formation/PMNL, residual activity [7] | Structure (SMILES) | Cell viability/peripheral blood mononuclear cells, residual viability [2] | 15-LO product formation/PMNL, residual activity [3] | also measured
1 | > 1000 nM | 808 ± 159 µM | n.i. | Cc1c(C)c2c(c(C)c1O)CC[C@@](C)(CCC[C@H](C)CCC[C@H](C)CCCC(C)C)O2 [1a, α-tocopherol] | n.i. | n.i. | LTC4 levels in the exudate [1]: significantly less effective; plasma levels in humans [5]: 25 to 35 µM; hepatic tissue concentrations ([5]; ref Nagita et al., 1997): 70 to 530 nmol/g; human plasma level ([5]; ref Nagita et al., 1997): 14 to 27 µM
2 |  |  | 75.1 ± 12.1 % of control | C/C(=C\CC/C(C)=C/CC[C@]1(C)CCc2cc(O)cc(C)c2O1)CC/C=C(\C)C(=O)O [4h, garcinoic acid] | n.i. | 128.6 ± 42.3 % of control | radical scavenging as measure for antioxidant activity ([8]; DPPH): only evident at micromolar; concentration at which intracellular Ca^2+-influx was significantly reduced [9]: ≥ 1 µM; water solubility [10]: poor
3 |  |  |  | O=C1O[C@H]([C@@H](O)CO)C(O)=C1O [Ascorbic acid, reference compound] |  |  | DPPH radicals scavenged ([8]; 50 µM, control): 82.4 ± 1.9%
4 | 150 ± 50 nM | 1.26 ± 0.33 µM | n.i. | C/C(=C\CC/C(C)=C/CC/C(C)=C/CC[C@]1(C)CCc2cc(O)cc(C)c2O1)CO [2h] | n.i. | n.i. | 
5 | 310 ± 100 nM | 85 ± 5 µM | n.i. | Cc1cc(O)cc2c1O[C@](C)(CCC[C@H](C)CCC[C@H](C)CCCC(C)C)CC2 [1d] | n.i. | 86.6 ± 15.8 % of control | plasma levels in humans [5]: 0.01 µM
6 | 350 ± 40 nM | 0.19 ± 0.05 µM | 84.7 ± 4.7 % of control | Cc1c(C)c2c(c(C)c1O)CC[C@@](C)(CCCC(C)CCCC(C)CCCC(C)CO)O2 (some centres unmarked) [2a] | n.i. | 156.7 ± 26.2 % of control | 
7 |  |  |  | CC(C)c1ccc2c(c1)c(SC(C)(C)C)c(CC(C)(C)C(=O)O)n2Cc1ccc(Cl)cc1 [MK-886, reference compound] |  |  | suppression of LTC4 formation [11]: 95.6 ± 0.9%

Row | Structure (SMILES) | IC50 [4] | IC50 [6] | 12-LO product formation/PMNL, residual activity [7] | Cell viability/peripheral blood mononuclear cells, residual viability [2] | 15-LO product formation/PMNL, residual activity [3] | also measured
8 | CC(C)=CCC/C(C)=C/CC/C(C)=C/CC[C@]1(C)CCc2cc(O)cc(C)c2O1 [1h] | 170 ± 100 nM | 60 ± 15 µM | 87.6 ± 8.5 % of control | n.i. | n.i. | 
